These are literature values, as cited in patent US20170367972A1, “Formulations and Methods of Treatment for Treating Nail Fungal Infections” (priority 2016, published 2017).

In data set [1] the test system is dermatophytes.
Data set [2] concerns dermatophytes. The source holds these as a separate data set.

Consider `CN(C/C=C/C#CC(C)(C)C)Cc1cccc2ccccc12` [Terbinafine, terbinafine], for which, in the data set with Candida albicans, the “activity against Candida albicans” value is “only fungistatic activity”. Also, the activity against dermatophytes result in the data set with dermatophytes [1] is reported as “fungicidal activity”.

Consider `COC1=CC(=O)C[C@@H](C)[C@]12Oc1c(Cl)c(OC)cc(OC)c1C2=O` [griseofulvin], for which, in the data set with nondermophytic molds, the “activity against nondermophytic molds” value was “no activity”. Also, the activity against dermatophytes entry with dermatophytes [1] was “active in vitro against most dermatophytes”. Besides, the “activity against Candida spp.” value in the data set on Candida spp. is “no activity”. Moreover, the “effectiveness in dermatophytic infections” value with dermatophytes [2] is listed as “effective only for dermatophytic infections”.
